biological target: T1, human capsaicin receptor (Homo sapiens, UniProt Q8NER1); assay: Calcium mobilization assay, determination of antagonist activity (Example 6); assay type: cell-based; settings: Table II; IC50 determined as described in Example 6 (antagonist activity, calcium mobilization)
T1 construct: pBK-CMV expression construct encoding the full length human capsaicin receptor; expressed in transfected cells
Protocol: A cDNA encoding full length human capsaicin receptor (SEQ ID NO: 1, 2 or 3 of U.S. Pat. No. 6,482,611) was subcloned in the plasmid pBK-CMV (Stratagene, La Jolla, Calif.) for recombinant expression in mammalian cells.
Human embryonic kidney (HEK293) cells were transfected with the pBK-CMV expression construct encoding the full length human capsaicin receptor using standard methods. The transfected cells were selected for two weeks in media containing G418 (400 μg/ml) to obtain a pool of stably transfected cells. Independent clones were isolated from this pool by limiting dilution to obtain clonal stable cell lines for use in subsequent experiments.
This Example illustrates representative calcium mobilization assays for use in evaluating test compounds for agonist and antagonist activity.
Cells transfected with expression plasmids (as described in Example 4) and thereby expressing human capsaicin receptor are seeded and grown to 70-90% confluency in FALCON black-walled, clear-bottomed 96-well plates (#3904, BECTON-DICKINSON, Franklin Lakes, N.J.). The culture medium is emptied from the 96 well plates and FLUO-3 AM calcium sensitive dye (Molecular Probes, Eugene, Oreg.) is added to each well (dye solution: 1 mg FLUO-3 AM, 440 μL DMSO and 440 pi 20% pluronic acid in DMSO, diluted 1:250 in Krebs-Ringer HEPES (KRH) buffer (25 mM HEPES, 5 mM KCl, 0.96 mM NaH2PO4, 1 mM MgSO4, 2 mM CaCl2, 5 mM glucose, 1 mM probenecid, pH 7.4), 50 μl diluted solution per well). Plates are covered with aluminum foil and incubated at 37° C. for 1-2 hours in an environment containing 5% CO2. After the incubation, the dye is emptied from the plates, and the cells are washed once with KRH buffer, and resuspended in KRH buffer.
To measure the ability of a test compound to agonize or antagonize a calcium mobilization response in cells expressing capsaicin receptors to capsaicin or other vanilloid agonist, the EC50 of the agonist capsaicin is first determined. An additional 20 μl of KRH buffer and 1 μl DMSO is added to each well of cells, prepared as described above. 100 μl capsaicin in KRH buffer is automatically transferred by the FLIPR instrument to each well. Capsaicin-induced calcium mobilization is monitored using either FLUOROSKAN ASCENT (Labsystems; Franklin, Mass.) or FLIPR (fluorometric imaging plate reader system; Molecular Devices, Sunnyvale, Calif.) instruments. Data obtained between 30 and 60 seconds after agonist application are used to generate an 8-point concentration response curve, with final capsaicin concentrations of 1 nM to 3 μM. KALEIDAGRAPH software (Synergy Software, Reading, Pa.) is used to fit the data to the equation: y=a*(1/(1+(b/x)^c)) to determine the 50% excitatory concentration (EC50) for the response. In this equation, y is the maximum fluorescence signal, x is the concentration of the agonist or antagonist (in this case, capsaicin), a is the Emax, b corresponds to the EC50 value and c is the Hill coefficient. Determination of Agonist Activity
Test compounds are dissolved in DMSO, diluted in 20 μl KRH buffer so that the final concentration of test compounds in the assay well is between 1 μM and 5 μM, and added to cells prepared as described above. The 96 well plates containing prepared cells and test compounds are incubated in the dark, at room temperature for 0.5 to 6 hours. It is important that the incubation not continue beyond 6 hours. Just prior to determining the fluorescence response, 100 pi capsaicin in KRH buffer at twice the EC50 concentration determined as described above is automatically added by the FLIPR instrument to each well of the 96 well plate for a final sample volume of 200 μl and a final capsaicin concentration equal to the EC50. The final concentration of test compounds in the assay wells is between 1 μM and 5 μM. […]

T1 sequence (Q8NER1 whole entry): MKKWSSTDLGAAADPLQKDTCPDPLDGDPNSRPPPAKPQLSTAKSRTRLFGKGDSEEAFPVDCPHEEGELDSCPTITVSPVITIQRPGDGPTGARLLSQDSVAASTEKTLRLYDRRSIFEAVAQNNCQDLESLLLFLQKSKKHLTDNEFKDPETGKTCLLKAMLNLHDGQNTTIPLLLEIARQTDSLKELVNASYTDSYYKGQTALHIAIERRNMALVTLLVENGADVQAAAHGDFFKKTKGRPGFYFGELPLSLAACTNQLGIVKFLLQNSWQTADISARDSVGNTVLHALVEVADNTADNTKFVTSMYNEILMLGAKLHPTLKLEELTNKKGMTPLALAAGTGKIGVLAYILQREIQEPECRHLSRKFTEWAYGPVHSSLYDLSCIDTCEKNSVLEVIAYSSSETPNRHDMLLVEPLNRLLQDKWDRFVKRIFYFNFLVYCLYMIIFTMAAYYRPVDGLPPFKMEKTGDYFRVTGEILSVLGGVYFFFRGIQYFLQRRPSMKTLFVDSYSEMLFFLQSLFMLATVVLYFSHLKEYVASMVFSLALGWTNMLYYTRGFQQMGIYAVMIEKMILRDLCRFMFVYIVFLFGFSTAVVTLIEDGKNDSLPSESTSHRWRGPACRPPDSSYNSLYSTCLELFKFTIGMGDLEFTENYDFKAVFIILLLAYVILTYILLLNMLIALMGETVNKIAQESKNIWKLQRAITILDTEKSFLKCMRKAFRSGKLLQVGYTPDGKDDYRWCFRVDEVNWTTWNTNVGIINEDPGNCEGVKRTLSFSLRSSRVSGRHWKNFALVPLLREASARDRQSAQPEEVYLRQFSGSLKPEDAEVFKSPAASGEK

IC50, ≤ 1000 nM:
CC1CCCN1c1nc(-c2ccc(F)cc2)cc(N2CCN(c3nc(C#N)ccc3C#N)C[C@H]2C)n1 (stereo in doubt) [Example 1014, 6-{4-[6-(4-fluorophenyl)-2-(2-methylpyrrolidin-1-yl)pyrimidin-4-yl]-3-methylpiperazin-1-yl}pyridine-2,5-dicarbonitrile]

same assay, conditions: Table II; determined as described in Example 6 (antagonist activity); "*" = 1 micromolar or less

IC50, ≤ 1000 nM:
C[C@@H]1CCCN1c1nc(-c2ccc(Cl)c(F)c2)cc(N2CCN(c3nccnc3Cl)C[C@@H]2C)n1 (relative stereo) [Example 969, rel-4-(4-chloro-3-fluorophenyl)-6-[(2R)-4-(3-chloropyrazin-2-yl)-2-methylpiperazin-1-yl]-2-[(2S)-2-methylpyrrolidin-1-yl]pyrimidine]
C[C@@H]1CN(c2nccnc2Cl)CCN1c1cc(-c2ccc(F)c(F)c2)nc(Cl)n1 (stereo in doubt) [Example 823, 2-chloro-4-[4-(3-chloropyrazin-2-yl)-2-methylpiperazin-1-yl]-6-(3,4-difluorophenyl)pyrimidine]
C[C@@H]1CN(c2ncccc2Cl)CCN1c1cc(-c2ccc(F)c(Cl)c2)nc(Cl)n1 (stereo in doubt) [Example 827, 2-chloro-4-(3-chloro-4-fluorophenyl)-6-[4-(3-chloropyridin-2-yl)-2-methylpiperazin-1-yl]pyrimidine]
CSc1nc(-c2ccc(F)cc2)cc(N2CCN(c3ncccc3Cl)C[C@H]2C)n1 (stereo in doubt) [Example 839, 4-[4-(3-chloropyridin-2-yl)-2-methylpiperazin-1-yl]-6-(4-fluorophenyl)-2-(methylthio)pyrimidine]
C[C@@H]1CN(c2ncccc2Cl)CCN1c1cc(-c2ccc(F)cc2)nc(S(C)(=O)=O)n1 (stereo in doubt) [Example 840, 4-[4-(3-chloropyridin-2-yl)-2-methylpiperazin-1-yl]-6-(4-fluorophenyl)-2-(methylsulfonyl)pyrimidine]
C[C@@H]1CN(c2ncccc2Cl)CCN1c1cc(-c2ccc(F)cc2)nc(N2CCCC2)n1 (stereo in doubt) [Example 841, 4-[4-(3-chloropyridin-2-yl)-2-methylpiperazin-1-yl]-6-(4-fluorophenyl)-2-pyrrolidin-1-ylpyrimidine]
CC1CCCN1c1nc(-c2ccc(F)cc2)cc(N2CCN(c3ncccc3Cl)C[C@H]2C)n1 (stereo in doubt) [Example 842, 4-[4-(3-chloropyridin-2-yl)-2-methylpiperazin-1-yl]-6-(4-fluorophenyl)-2-(2-methylpyrrolidin-1-yl)pyrimidine]
CCOC(=O)c1ccc(-c2cc(N3CCN(c4ncccc4Cl)C[C@H]3C)nc(N3CCCC3C)n2)cc1 (stereo in doubt) [Example 867, ethyl 4-[6-[4-(3-chloropyridin-2-yl)-2-methylpiperazin-1-yl]-2-(2-methylpyrrolidin-1-yl)pyrimidin-4-yl]benzoate]
CC1CCCN1c1nc(-c2cccc(C#N)c2)cc(N2CCN(c3ncccc3Cl)C[C@H]2C)n1 (stereo in doubt) [Example 869, 3-[6-[4-(3-chloropyridin-2-yl)-2-methylpiperazin-1-yl]-2-(2-methylpyrrolidin-1-yl)pyrimidin-4-yl]benzonitrile]
C[C@@H]1CN(c2ncccc2Cl)CCN1c1cc(-c2cccc(C#N)c2)nc(N2CCOCC2)n1 (stereo in doubt) [Example 870, 3-{6-[4-(3-chloropyridin-2-yl)-2-methylpiperazin-1-yl]-2-morpholin-4-ylpyrimidin-4-yl}benzonitrile]
CC(=O)c1cccc(-c2cc(N3CCN(c4ncccc4Cl)C[C@H]3C)nc(N3CCCC3C)n2)c1 (stereo in doubt) [Example 888, 1-{3-[6-[4-(3-chloropyridin-2-yl)-2-methylpiperazin-1-yl]-2-(2-methylpyrrolidin-1-yl)pyrimidin-4-yl]phenyl}ethanone]
Cc1cc(-c2cc(Cl)nc(N3CCN(c4ncccc4Cl)C[C@@H]3C)n2)ccc1F (stereo in doubt) [Example 899, 4-chloro-2-[4-(3-chloropyridin-2-yl)-2-methylpiperazin-1-yl]-6-(4-fluoro-3-methylphenyl)pyrimidine]
Cc1cc(-c2cc(N3CCN(c4ncccc4Cl)C[C@@H]3C)nc(N3CCCC3C)n2)ccc1F (stereo in doubt) [Example 903, 4-[4-(3-chloropyridin-2-yl)-2-methylpiperazin-1-yl]-6-(4-fluoro-3-methylphenyl)-2-(2-methylpyrrolidin-1-yl)pyrimidine]
C[C@@H]1CN(c2nccnc2Cl)CCN1c1cc(-c2ccc(F)c(Cl)c2)nc(Cl)n1 (stereo in doubt) [Example 907, 2-chloro-4-(3-chloro-4-fluorophenyl)-6-[4-(3-chloropyrazin-2-yl)-2-methylpiperazin-1-yl]pyrimidine]
Cc1cc(-c2cc(N3CCN(c4nccnc4Cl)C[C@H]3C)nc(N3CCCC3C)n2)ccc1F (stereo in doubt) [Example 915, 4-[4-(3-chloropyrazin-2-yl)-2-methylpiperazin-1-yl]-6-(4-fluoro-3-methylphenyl)-2-(2-methylpyrrolidin-1-yl)pyrimidine]
C[C@H]1CN(c2nccnc2Cl)CCN1c1cc(-c2ccc(F)c(F)c2)nc(N2CCOCC2)n1 (stereo in doubt) [Example 939, 4-[4-[4-(3-chloropyrazin-2-yl)-2-methylpiperazin-1-yl]-6-(3,4-difluorophenyl)pyrimidin-2-yl]morpholine]
CC1CN(c2nccnc2Cl)CCN1c1nc(-c2ccc(F)c(Cl)c2)cc(N2CCC[C@H]2C)n1 (stereo in doubt) [Example 943, 4-(3-chloro-4-fluorophenyl)-2-[(2R)-4-(3-chloropyrazin-2-yl)-2-methylpiperazin-1-yl]-6-[(2R)-2-methylpyrrolidin-1-yl]pyrimidine]
CC1CCCN1c1nc(-c2ccc(F)c(Cl)c2)cc(N2CCN(c3ncc(Cl)cc3Cl)C[C@H]2C)n1 (stereo in doubt) [Example 954, 4-(3-chloro-4-fluorophenyl)-6-[4-(3,5-dichloropyridin-2-yl)-2-methylpiperazin-1-yl]-2-(2-methylpyrrolidin-1-yl)pyrimidine]

same assay, conditions: Table II; determined as described in Example 6; class symbol

IC50, ≤ 1000 nM:
Cc1cccc(-c2nc(N3CCOCC3)nc(N3CCN(c4ccccn4)CC3)n2)c1 [Example 234]
CC(C)c1cccc(-c2nc(N3CCOCC3)nc(N3CCN(c4ccccn4)CC3)n2)c1 [Example 235, 2-(3-isopropylphenyl)-4-morpholin-4-yl-6-(4-pyridin-2-ylpiperazin-1-yl)-1,3,5-triazine]
Cc1cc(C)cc(-c2nc(N3CCOCC3)nc(N3CCN(c4ccccn4)CC3)n2)c1 [Example 236, 2-(3,5-dimethylphenyl)-4-morpholin-4-yl-6-(4-pyridin-2-ylpiperazin-1-yl)-1,3,5-triazine]
CCc1cccc(-c2nc(N3CCOCC3)nc(N3CCN(c4ccccn4)CC3)n2)c1 [Example 237, 2-(3-ethylphenyl)-4-morpholin-4-yl-6-(4-pyridin-2-ylpiperazin-1-yl)-1,3,5-triazine]
Cc1cccc(-c2nc(N3CCOCC3)nc(N3CCN(c4ncccc4C(F)(F)F)CC3)n2)c1 [Example 238, 2-(3-methylphenyl)-4-morpholin-4-yl-6-{4-[3-(trifluoromethyl)pyridin-2-yl]piperazin-1-yl}-1,3,5-triazine]

From US7566712B2, “Biaryl piperazinyl-pyridine analogues” (Neurogen Corporation, priority 2003, dated 2009)
